# Residues, ends and D or L forms follow the SMILES beside them. *: point of attachment. X1 = CC1CCC2C(C)(C)C(O)CCC2(C)C12Cc1c(O)cc3c(c1O2)CN(C(CC[S+](C)[O-])C(=O)*)C3=O
# How the values were obtained:
# [1] = system: Staphylococcus aureus 701E
# [2] = system: Staphylococcus aureus SG 511
# [3] = system: Enterococcus faecium Md8B
# SERCA2 = target: T1, SERCA2 (Canis lupus familiaris, UniProt O46674); assay: Colorimetric Ca2+ ATPase (SERCA2) activation test in dog heart microsomes; format: biochemical; settings: Ca2+ ATPase activity in dog heart microsomes, phosphate release at 620 nm
# T1 construct: activity of the Ca^2+ ATPase in dog heart microsomes; from tissue; host or cells: dog heart microsomes
# T1 sequence (O46674 whole entry): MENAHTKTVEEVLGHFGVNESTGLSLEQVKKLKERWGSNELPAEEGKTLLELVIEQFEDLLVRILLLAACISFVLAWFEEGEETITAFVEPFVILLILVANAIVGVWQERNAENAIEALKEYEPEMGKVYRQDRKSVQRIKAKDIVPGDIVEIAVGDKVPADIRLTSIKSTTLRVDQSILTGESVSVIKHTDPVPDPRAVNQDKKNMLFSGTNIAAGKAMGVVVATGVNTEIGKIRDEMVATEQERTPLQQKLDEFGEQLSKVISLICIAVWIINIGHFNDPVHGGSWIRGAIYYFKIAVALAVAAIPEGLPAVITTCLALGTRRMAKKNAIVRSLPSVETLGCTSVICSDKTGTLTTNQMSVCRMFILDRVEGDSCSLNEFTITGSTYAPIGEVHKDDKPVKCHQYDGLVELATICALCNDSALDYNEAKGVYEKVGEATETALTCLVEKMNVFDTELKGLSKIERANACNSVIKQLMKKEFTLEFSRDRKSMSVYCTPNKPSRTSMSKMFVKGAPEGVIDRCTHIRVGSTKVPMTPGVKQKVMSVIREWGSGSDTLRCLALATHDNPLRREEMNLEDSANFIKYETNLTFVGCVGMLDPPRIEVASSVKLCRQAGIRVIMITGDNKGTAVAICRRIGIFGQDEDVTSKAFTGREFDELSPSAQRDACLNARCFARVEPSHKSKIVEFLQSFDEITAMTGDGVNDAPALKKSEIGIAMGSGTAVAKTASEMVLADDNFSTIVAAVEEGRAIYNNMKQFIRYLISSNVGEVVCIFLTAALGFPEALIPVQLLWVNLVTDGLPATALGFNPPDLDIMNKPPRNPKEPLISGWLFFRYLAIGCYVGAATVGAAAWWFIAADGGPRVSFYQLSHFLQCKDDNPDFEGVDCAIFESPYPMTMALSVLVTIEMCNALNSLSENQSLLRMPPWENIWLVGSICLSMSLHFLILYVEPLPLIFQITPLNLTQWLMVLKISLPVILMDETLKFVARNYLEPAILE
# Description: For the detection of the activators of SERCA2 which imitate the phosphorylation effect of PLB, a […] test may be run which determines the activity of the Ca^2+ ATPase in dog heart microsomes in the presence of test substances. The test may be carried out in 96-well microtiter plates. The enzymatic release of inorganic phosphate from ATP, which forms a blue colored complex with ammonium molybdate which can be measured at 620 nm in a spectrophotometer, may be measured.
# [4] = target: glucose-6-phosphate translocase (G-6-P—TL) (Homo sapiens, UniProt O43826); assay: Inhibition of glucose-6-phosphate translocase; format: biochemical
# Sequence of glucose-6-phosphate translocase (G-6-P—TL) (O43826 whole entry, species assumed): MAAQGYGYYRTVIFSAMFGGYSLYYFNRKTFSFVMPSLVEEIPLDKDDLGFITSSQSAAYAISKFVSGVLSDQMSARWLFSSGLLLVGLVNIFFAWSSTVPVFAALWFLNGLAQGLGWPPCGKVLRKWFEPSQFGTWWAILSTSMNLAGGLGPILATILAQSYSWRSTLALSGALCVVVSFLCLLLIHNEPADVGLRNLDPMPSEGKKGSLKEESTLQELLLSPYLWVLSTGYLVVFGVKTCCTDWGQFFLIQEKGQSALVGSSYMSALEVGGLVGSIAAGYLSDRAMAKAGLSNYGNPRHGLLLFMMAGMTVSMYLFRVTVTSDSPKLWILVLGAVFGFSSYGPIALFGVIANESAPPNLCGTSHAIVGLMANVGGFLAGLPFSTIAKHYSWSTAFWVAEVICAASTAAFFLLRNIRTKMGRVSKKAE
# [5] = system: Staphylococcus aureus 503
# [6] = system: Streptococcus pyogenes 77A
# [7] = system: Staphylococcus aureus 707E
# [8] = system: Staphylococcus aureus 285
# [9] = system: Staphylococcus aureus 9 Tüb
# [10] = system: Staph. epidermidis 5747IIW
# G-6-P phosphatase = G-6-P phosphatase (Homo sapiens, UniProt P35575); assay: Inhibition of G-6-P phosphatase; format: biochemical
# Sequence of G-6-P phosphatase (P35575 whole entry): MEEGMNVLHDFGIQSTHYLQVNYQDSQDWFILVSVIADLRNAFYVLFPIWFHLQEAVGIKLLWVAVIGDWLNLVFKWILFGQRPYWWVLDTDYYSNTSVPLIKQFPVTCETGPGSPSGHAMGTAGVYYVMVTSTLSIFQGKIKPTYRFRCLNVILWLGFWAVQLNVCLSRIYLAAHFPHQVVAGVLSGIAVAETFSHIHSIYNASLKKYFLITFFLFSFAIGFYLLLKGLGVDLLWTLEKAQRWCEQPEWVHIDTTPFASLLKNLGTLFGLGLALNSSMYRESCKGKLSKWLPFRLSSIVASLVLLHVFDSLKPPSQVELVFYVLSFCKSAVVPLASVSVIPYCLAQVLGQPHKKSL
# [11] = system: Streptococcus pyogenes 308A
# [12] = system: Staphylococcus aureus FH 1982
# [13] = system: Streptococcus pyogenes VR3; assay: Minimum inhibitory concentration; format: cell-based; settings: resistance against: Vancomycin
smiles,measurement,setting,value
CC(C)CC(NC(=O)C1CCCN1C(=O)C(CCC(N)=O)NC(=O)C(Cc1c[nH]cn1)NC(=O)C1CCCN1C(=O)C(CCC(N)=O)NC(=O)C(Cc1cnc[nH]1)NC(=O)C(CC[S+](C)[O-])N1Cc2c(cc(O)c3c2OC2(C3)C(C)CCC3C(C)(C)C(O)CCC32C)C1=O)C(=O)N1CCCC1C(=O)N1CCCC1C(=O)O (stereo not drawn) [memno peptide A] (X1-HQPHQPLPP-OH; configuration not given here),MIC,[1],16 µg/mL
same,MIC,Staph. epidermidis 291,8 µg/mL
same,MIC,[2],16 µg/mL
same,MIC,Enterococcus faecium VR2,>64 µg/mL
same,MIC,Staph. epidermidis ZH 2c,16 µg/mL
same,MIC,[3],8 µg/mL
same,activates SERCA2 in concentrations from,SERCA2,≥ 12.5 µM
same,MIC,Enterococcus faecium VR1,>64 µg/mL
same,inhibitory action on glucose-6-phosphate translocase (G-6-P—TL),[4],exhibits selective activities against G-6-P—TL
same,MIC,Staph. epidermidis 799,8 µg/mL
same,MIC,[5],16 µg/mL
same,MIC,[6],4 µg/mL
same,MIC,Staph. epidermidis 763,>16 µg/mL
same,MIC,[7],16 µg/mL
same,MIC,[8],16 µg/mL
same,MIC,[9],16 µg/mL
same,MIC,[10],32 µg/mL
same,inhibition of the coenzyme G-6-P phosphatase,G-6-P phosphatase,does not inhibit
same,MIC,[11],8 µg/mL
same,MIC,[12],16 µg/mL
same,MIC,[13],>64 µg/mL

# Reference: patent publication US6627604B2, “Memno peptides, process for their preparation and use thereof” (priority 2000, dated 2003)
